From PubChem BioAssay AID2060498 (Molecular Pharmacology Branch, DTP, NCI, 2025)

Tested on: 171881-019-R-J1-PDC tumor spheroids, viability
Test: Anticancer human tumor 171881-019-R-J1-PDC patient-derived invasive breast carcinoma cell line growth inhibition [GQUAD]
Conditions: spheroids with HUVEC and MSC; for IC50: curve of first compound; for viability, T/C: stronger effect = lower value
In short: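 Tumor cells were grown as complex spheroids with HUVEC endothelial cells and mesenchymal stem cells as stroma. G-quadruplex stabilizers were combined with targeted agents over half-log dilutions from near the clinical Cmax, or from 10 microM.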

[1] = second compound 0.0316 µM, first compound 0.0316 µM
[2] = second compound 0.0316 µM, first compound 0.1 µM
[3] = second compound 0.0316 µM, first compound 0.316 µM
[4] = second compound 0.0316 µM, first compound 1 µM
[5] = second compound 0.0316 µM, first compound 3.16 µM
[6] = second compound 0.0316 µM, first compound 10 µM
[7] = second compound 0.1 µM, first compound 0.0316 µM
[8] = second compound 0.1 µM, first compound 0.1 µM
[9] = second compound 0.1 µM, first compound 0.316 µM
[10] = second compound 0.1 µM, first compound 1 µM
[11] = second compound 0.1 µM, first compound 3.16 µM
[12] = second compound 0.1 µM, first compound 10 µM
[13] = second compound 0.316 µM, first compound 0.0316 µM
[14] = second compound 0.316 µM, first compound 0.1 µM
[15] = second compound 0.316 µM, first compound 0.316 µM
[16] = second compound 0.316 µM, first compound 1 µM
[17] = second compound 0.316 µM, first compound 3.16 µM
[18] = second compound 0.316 µM, first compound 10 µM
[19] = second compound 1 µM, first compound 0.0316 µM
[20] = second compound 1 µM, first compound 0.1 µM
[21] = second compound 1 µM, first compound 0.316 µM
[22] = second compound 1 µM, first compound 1 µM
[23] = second compound 1 µM, first compound 3.16 µM
[24] = second compound 1 µM, first compound 10 µM
[25] = second compound 3.16 µM, first compound 0.0316 µM
[26] = second compound 3.16 µM, first compound 0.1 µM
[27] = second compound 3.16 µM, first compound 0.316 µM
[28] = second compound 3.16 µM, first compound 1 µM
[29] = second compound 3.16 µM, first compound 3.16 µM
[30] = second compound 3.16 µM, first compound 10 µM
[31] = second compound 10 µM, first compound 0.0316 µM
[32] = second compound 10 µM, first compound 0.1 µM
[33] = second compound 10 µM, first compound 0.316 µM
[34] = second compound 10 µM, first compound 1 µM
[35] = second compound 10 µM, first compound 3.16 µM
[36] = second compound 10 µM, first compound 10 µM
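Note: spheroids exposed to compounds for 7 days.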
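Throughout, for viability, T/C: 100% = DMSO vehicle control viability.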

CC(=O)O[C@H]1C(=O)[C@@]2(C)[C@H]([C@H](OC(=O)c3ccccc3)[C@]3(O)C[C@H](OC(=O)[C@H](O)[C@@H](NC(=O)c4ccccc4)c4ccccc4)C(C)=C1C3(C)C)[C@]1(OC(C)=O)CO[C@@H]1C[C@@H]2O + Cc1cnc(CNC(=O)c2c(=O)c3ccc(N4CCCN(C)CC4)nc3n3c2sc2ccccc23)cn1
IC50 (second compound 0.0316 µM): < 31.6 nM | IC50 (second compound 0.1 µM): < 31.6 nM | IC50 (second compound 0.316 µM): < 31.6 nM | IC50 (second compound 1 µM): < 31.6 nM | IC50 (second compound 3.16 µM): < 31.6 nM | IC50 (second compound 10 µM): < 31.6 nM | viability, T/C [1]: 37.4% | viability, T/C [2]: 29.4% | viability, T/C [3]: 27.8% | viability, T/C [4]: 26% | viability, T/C [5]: 24.2% | viability, T/C [6]: 26.7% | viability, T/C [7]: 43.9% | viability, T/C [8]: 38% | viability, T/C [9]: 31.3% | viability, T/C [10]: 33.2% | viability, T/C [11]: 31.9% | viability, T/C [12]: 32.9% | viability, T/C [13]: 51.2% | viability, T/C [14]: 44.1% | viability, T/C [15]: 39.5% | viability, T/C [16]: 35% | viability, T/C [17]: 37.1% | viability, T/C [18]: 38.5% | viability, T/C [19]: 51.9% | viability, T/C [20]: 45.4% | viability, T/C [21]: 47% | viability, T/C [22]: 40.1% | viability, T/C [23]: 45% | viability, T/C [24]: 50.5% | viability, T/C [25]: 51.9% | viability, T/C [26]: 46.5% | viability, T/C [27]: 47% | viability, T/C [28]: 44.2% | viability, T/C [29]: 50.8% | viability, T/C [30]: 49.9% | viability, T/C [31]: 46.6% | viability, T/C [32]: 48.4% | viability, T/C [33]: 46% | viability, T/C [34]: 47.6% | viability, T/C [35]: 50.3% | viability, T/C [36]: 51.9%

O=C(NO)c1cnc(N2CCN(S(=O)(=O)c3ccc4ccccc4c3)CC2)nc1 + Cc1cnc(CNC(=O)c2c(=O)c3ccc(N4CCCN(C)CC4)nc3n3c2sc2ccccc23)cn1
IC50 (second compound 0.0316 µM): 167 nM | IC50 (second compound 0.1 µM): 194 nM | IC50 (second compound 0.316 µM): 160 nM | IC50 (second compound 1 µM): 148 nM | IC50 (second compound 3.16 µM): 118 nM | IC50 (second compound 10 µM): 111 nM | viability, T/C [1]: 81.5% | viability, T/C [2]: 60.9% | viability, T/C [3]: 36.3% | viability, T/C [4]: 2.76% | viability, T/C [5]: 0.43% | viability, T/C [6]: 0.3% | viability, T/C [7]: 75.5% | viability, T/C [8]: 68.2% | viability, T/C [9]: 36.2% | viability, T/C [10]: 2.32% | viability, T/C [11]: 0.07% | viability, T/C [12]: 0.41% | viability, T/C [13]: 60.8% | viability, T/C [14]: 61.7% | viability, T/C [15]: 33.8% | viability, T/C [16]: 1.48% | viability, T/C [17]: 0.32% | viability, T/C [18]: 0.45% | viability, T/C [19]: 67% | viability, T/C [20]: 57.1% | viability, T/C [21]: 32.3% | viability, T/C [22]: 0.14% | viability, T/C [23]: 0.48% | viability, T/C [24]: 0.09% | viability, T/C [25]: 60% | viability, T/C [26]: 51.9% | viability, T/C [27]: 27.6% | viability, T/C [28]: 0.22% | viability, T/C [29]: 0.63% | viability, T/C [30]: 0.36% | viability, T/C [31]: 52.8% | viability, T/C [32]: 52.5% | viability, T/C [33]: 23.7% | viability, T/C [34]: 0.3% | viability, T/C [35]: 0.83% | viability, T/C [36]: 0.13%

Cc1cccc(N(C)C(=O)C2C(O)CCN2c2nc(C)cc(C(F)(F)F)c2C#N)c1 (stereo not drawn) + Cc1cnc(CNC(=O)c2c(=O)c3ccc(N4CCCN(C)CC4)nc3n3c2sc2ccccc23)cn1
IC50 (second compound 0.0316 µM): > 10000 nM | IC50 (second compound 0.1 µM): > 10000 nM | IC50 (second compound 0.316 µM): > 10000 nM | IC50 (second compound 1 µM): > 10000 nM | IC50 (second compound 3.16 µM): > 10000 nM | IC50 (second compound 10 µM): > 10000 nM | viability, T/C [1]: 105% | viability, T/C [2]: 87.2% | viability, T/C [3]: 90.4% | viability, T/C [4]: 92.2% | viability, T/C [5]: 88.5% | viability, T/C [6]: 79.7% | viability, T/C [7]: 86.9% | viability, T/C [8]: 88% | viability, T/C [9]: 77.6% | viability, T/C [10]: 76.2% | viability, T/C [11]: 80.6% | viability, T/C [12]: 79.5% | viability, T/C [13]: 73.5% | viability, T/C [14]: 73.1% | viability, T/C [15]: 75.8% | viability, T/C [16]: 69.7% | viability, T/C [17]: 77.7% | viability, T/C [18]: 69% | viability, T/C [19]: 67.5% | viability, T/C [20]: 66.5% | viability, T/C [21]: 71.1% | viability, T/C [22]: 66.4% | viability, T/C [23]: 74.2% | viability, T/C [24]: 70.3% | viability, T/C [25]: 65.3% | viability, T/C [26]: 60.9% | viability, T/C [27]: 63.1% | viability, T/C [28]: 55.9% | viability, T/C [29]: 68.8% | viability, T/C [30]: 67.8% | viability, T/C [31]: 60.9% | viability, T/C [32]: 66.7% | viability, T/C [33]: 61.3% | viability, T/C [34]: 66.2% | viability, T/C [35]: 67.6% | viability, T/C [36]: 66.8%

CC1COCCN1c1cc(C2(S(C)(=N)=O)CC2)nc(-c2ccnc3[nH]ccc23)n1 (stereo not drawn) + Cc1[nH]c2ccc(F)cc2c1-c1nc2c3cccnc3c3ncccc3c2[nH]1
IC50 (second compound 0.0316 µM): 1170 nM | IC50 (second compound 0.1 µM): 1130 nM | IC50 (second compound 0.316 µM): 1130 nM | IC50 (second compound 1 µM): 749 nM | IC50 (second compound 3.16 µM): < 31.6 nM | IC50 (second compound 10 µM): < 31.6 nM | viability, T/C [1]: 97.5% | viability, T/C [2]: 97% | viability, T/C [3]: 87.4% | viability, T/C [4]: 55.4% | viability, T/C [5]: 18.6% | viability, T/C [6]: 9.09% | viability, T/C [7]: 103% | viability, T/C [8]: 100% | viability, T/C [9]: 87.7% | viability, T/C [10]: 53.6% | viability, T/C [11]: 21.1% | viability, T/C [12]: 10.5% | viability, T/C [13]: 97.2% | viability, T/C [14]: 75.4% | viability, T/C [15]: 86.2% | viability, T/C [16]: 51.6% | viability, T/C [17]: 21.9% | viability, T/C [18]: 10.2% | viability, T/C [19]: 78.2% | viability, T/C [20]: 76.6% | viability, T/C [21]: 75.6% | viability, T/C [22]: 41% | viability, T/C [23]: 18.9% | viability, T/C [24]: 9.88% | viability, T/C [25]: 21.5% | viability, T/C [26]: 15.3% | viability, T/C [27]: 17.2% | viability, T/C [28]: 13.9% | viability, T/C [29]: 10.2% | viability, T/C [30]: 6.81% | viability, T/C [31]: 46% | viability, T/C [32]: 49.4% | viability, T/C [33]: 36.5% | viability, T/C [34]: 22% | viability, T/C [35]: 14.5% | viability, T/C [36]: 8.3%
